# Measurements from US10131639B2, “Formulations of 2-(tert-butylamino)-4-((1R,3R,4R)-3-hydroxy-4methylcyclohexylamino)-pyrimidine-5-carboxamide” (Signal Pharmaceuticals, LLC, priority 2014, dated 2018).
# Legend:
# [1] = Phase 1 study: safety and tolerability in healthy subjects; type: in vivo, human
# From the text: Safety will be monitored throughout the study. Safety evaluations will include adverse event (AE) reporting, PEs, vital signs, 12-lead ECGs, clinical laboratory safety tests (including liver function tests (LFTs), total cholesterol, triglycerides, high-density lipoprotein (HDL), and low-density lipoprotein (LDL)) in addition to standard clinical chemistry, hematology, and urinalysis tests), review of concomitant medications/procedures, evaluation of wound healing, and pregnancy tests for female subjects.
# All AEs will be monitored and recorded throughout the study from the time the informed consent form (ICF) is signed until study completion, and when made known to the Investigator within 28 days after the last dose of Compound 1 (and those serious adverse events (SAEs) made known to the Investigator at any time thereafter that are suspected of being related to IP). All concomitant medications and procedures will be reviewed and recorded from the time the subject signs the ICF until study completion. A follow-up visit (Part 1) or a follow-up phone call (Part 2) will be scheduled for all subjects. If a subject is discontinued from the study for any reason, an ET visit will be performed.
# Part 1: To evaluate the safety of single and multiple oral doses of Compound 1; and Part 2: To evaluate the safety and tolerability of the formulated Compound 1 tablets when administered with food.
# [2] = Hygroscopicity by dynamic vapor sorption (DVS); type: physicochemical
# From the text: DVS: A portion of the sample was loaded into a quartz sample holder and tested using DVS-Advantage system in two continuous adsorption/desorption cycles. The settings are described as follows:
# Adsorption/desorption cycle 1: 50 to 95 to 0% RH;
# Adsorption/desorption cycle 2: 0 to 95 to 0% RH;
structure (smiles),measurement,setting,value
"C[C@@H]1CC[C@@H](Nc2nc(NC(C)(C)C)ncc2C(N)=O)C[C@H]1O [Compound 1, 2-(tert-butylamino)-4-((1R,3R,4R)-3-hydroxy-4-methylcyclohexylamino)-pyrimidine-5-carboxamide]",subjects reporting TEAEs,"[1]; 11 of 28 subjects, 17 TEAEs, Parts 1 and 2 overall",39.3%
same,"clinical laboratory evaluations, vital sign measurements, ECGs",[1]; Parts 1 and 2,No clinically significant changes or findings
same,subjects with an SAE or severe TEAE,"[1]; Parts 1 and 2 overall, 28 subjects",No subjects
same,safety and tolerability,"[1]; multiple doses 60, 160 and 400 mg AIC QD for 6 days",safe and well tolerated
same,diarrhea suspected of being related to Compound 1,[1]; of 28 subjects,2 subjects
same,nausea suspected of being related to Compound 1,[1]; of 28 subjects,4 subjects
same,safety and tolerability,[1]; single doses of 200 mg as formulated tablets (fed and fasted) and AIC (fasted),safe and well tolerated
same,"Hygroscopicity (80% RH, 25° C., cycle 1 sorption)","[2]; DVS water uptake, L-tartrate: hydrate, difference between 20% RH and 80% RH",0.17%
same,"hygroscopicity (sorption/desorption, in words)","[2]; DVS, 25° C.",not hygroscopic
